# Source: patent US20210205292A1, “INHIBITORS OF CREB-CBP INTERACTION FOR TREATMENT OF LEUKEMIA” (The Board of Trustees of the Leland Stanford Junior …, priority 2016, published 2021)
# Columns and labels:
# [1] = target: T1, KIX domain of CBP, mutant lacking amino acids 586-602 (GST fusion) (Homo sapiens, UniProt Q92793); assay: Biacore surface plasmon resonance, binding to KIX deletion mutant versus native KIX; conditions: 5 μM
# T1 construct: spans CBP amino acids 586-666; made in house; host or cells: E. coli BL21(DE3)
# Experimental: KIX domain mutants were created by standard cloning and mutagenesis methods in the pGEX4T3 vector (GE Healthcare Life Sciences). GST-KIX fusion proteins were expressed in BL21(DE3-) cells (New England Biolabs) following induction with 1 mM IPTG for 6 hours at 37 degrees. GST-KIX and its mutants were purified with the B-PER GST Fusion Protein Spin Purification Kit (Thermo Scientific/Pierce). Surface Plasmon Resonance (Biacore) analysis was performed on a GE Biacore 3000 surface plasmon resonance instrument in collaboration with the Stanford Protein and Nucleic Acid (PAN) Facility.
# To confirm the binding of Compound A to the KIX domain of CBP, the KIX domain was expressed and purified as a fusion protein with Glutathione-S-Transferase (GST). Binding of Compound A to the KIX domain and two KIX domain mutants in which residues critical for CREB binding were altered or removed (Arg-600 mutated to Alanine or deletion of amino acids 586-602) was determined by Surface Plasmon Resonance (Biacore) analysis (FIG. 1, panel B). Mutation of Arginine-600 to Alanine reduced binding of Compound A by ˜45%, while a KIX domain mutant lacking amino acids 586-602 reduced binding by ˜70%. […] A hypothetical binding model between Compound A and CBP KIX domain is shown (FIG. 1, panel C). […]
# [2] = tested on: Bcl-2, Mcl-1, Bcl-XL expression in HL-60 cells; assay: RT-PCR and Western blot of anti-apoptotic proteins in HL-60 cells; format: cell-based, human; set-up: transcription of Bcl-2: dose or concentration left out as unconfirmed
# Experimental: Total RNA was isolated using the Aurum RNA Isolation Mini Kit, and the iScript cDNA Synthesis Kit was used to prepare samples for qPCR (Bio-Rad). PCR was performed on the CFX384 Real-Time System (Bio-Rad) and results were analyzed using the Livak method. For analysis of RNA-seq data as target genes of known transcription factors, a curated list of all human target genes was extracted from the TRANSFAC Pro database.
# Cells were lysed in RIPA buffer (Sigma), and the protein concentrations were determined by BCA assay (Thermo Scientific Pierce). Lysates were solubilized in 6×SDS PAGE buffer and […] of protein was loaded into 6-15% SDS PAGE gels, pheresed, and then transferred onto […] PVDF membrane (Millipore). Primary antibodies were applied at a dilution of 1:1000. Anti-Bcl-2, -Bax, -Mcl-1, -Bcl-XL, -Cyclin A and -Cyclin D1 antibodies were purchased from Cell Signaling Technologies. Anti-total acetylated histone and -ac-H3K27 were purchased from Santa Cruz Biotechnologies. Anti-actin and -CREB antibodies were purchased from upstate. Secondary antibodies were used at a 1:2500 dilution and purchased from Thermo Scientific/Pierce. WesternBright ECL was used for image acquisition on Image Lab software (Bio-Rad).
# The balance between pro- and anti-apoptotic protein expression contributes to cell fate decisions. CREB regulates the expression of several anti-apoptotic proteins, including Bcl-2, Bcl-XL and Mcl-1. Bcl-2 expression in particular is known to mediate resistance to chemotherapy and influence clinical outcome in a number of cancer types, including AML. The ability of Compound A to cause apoptosis by disrupting the CREB-driven expression of these anti-apoptotic proteins was examined. In HL-60 cells treated with Compound A, apoptosis is induced in a dose- and time-dependent manner. […] Compound A elicited apoptosis through the intrinsic apoptosis pathway, with activation of Caspase-3 (FIG. 5, panel B) and detectable Caspase-9 cleavage (data not shown). […]
# HL-60 cells = assay: HL-60 viability, combination of Compound A with kinase inhibitors; format: cell-based, human; conditions: 48 hours
# T1 sequence (Q92793 with tags, fused parts or gaps, stated change not applied): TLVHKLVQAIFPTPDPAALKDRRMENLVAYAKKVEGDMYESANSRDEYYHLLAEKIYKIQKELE
structure (smiles),measurement,setting,value
"N#Cc1ccc(NC(=O)c2cc3ccccc3cc2O)cc1 [Compound A, N-(4-cyanophenyl)-3-hydroxy-2-naphthamide]",reduction of binding of Compound A by KIX mutant lacking amino acids 586-602,[1],~70%
same,Bcl-XL expression,[2],remained constant
same,expression of Mcl-1,[2],"initially increased, then decreased at 72 hours"
same,transcription of Bcl-2,[2]; 72 hours,decreased
same,viability,HL-60 cells; Compound A alone,87.4±7.3%
same,viability,HL-60 cells; Compound A combined with ERK inhibitor,55.3±3.4%
same,viability,HL-60 cells; Compound A combined with RSK inhibitor,49.5±2.3%
